In paper PMC7782793, “Hydroxamic acid-modified peptide microarrays for profiling isozyme-selective interactions and inhibition of histone deacetylases” (Nature Communications, 2021):
Values joined by “and” are separate entries in the source; they are usually repeats but may differ in a detail not shown here. Equal entries are not always repeated. Marks after values point to notes of the source that are not given here. Non-standard residues stand in square brackets, D forms with d. Residues, ends and D or L forms follow the SMILES beside them. *: point of attachment. Asu = N[C@@H](CCCCCC(=O)O)C(=O)O; NHOH = ON*

Legend:
Assay type in all cases: biochemical
[1] = biological target: T1, HDAC2 (Homo sapiens, UniProt Q92769); test: HDAC inhibition assay (fluorogenic, Ac-Leu-Gly-Lys(Ac)-AMC); conditions: HDAC2, replicates
T1 construct: HDAC2 (full length, C-terminal His tag, BPS Bioscience, cat. #: 50002); purchased BPS Bioscience 50002

[2] = biological target: T2, HDAC1 (Homo sapiens, UniProt Q13547); test: as above; conditions: HDAC1, replicates
T2 construct: HDAC1 (full length, C-terminal His tag, C-terminal FLAG tag, BPS Bioscience, cat. #: 50051); FLAG (C); purchased BPS Bioscience 50051

[3] = biological target: T3, HDAC8 (Homo sapiens, UniProt Q9BY41); test: HDAC inhibition assay (fluorogenic, Ac-Leu-Gly-Lys(Tfa)-AMC); conditions: HDAC8, replicates
T3 construct: HDAC8 (full length, C-terminal His tag, BPS Bioscience, cat. #: 50008); purchased BPS Bioscience 50008
T3 sequence (Q9BY41 1-377): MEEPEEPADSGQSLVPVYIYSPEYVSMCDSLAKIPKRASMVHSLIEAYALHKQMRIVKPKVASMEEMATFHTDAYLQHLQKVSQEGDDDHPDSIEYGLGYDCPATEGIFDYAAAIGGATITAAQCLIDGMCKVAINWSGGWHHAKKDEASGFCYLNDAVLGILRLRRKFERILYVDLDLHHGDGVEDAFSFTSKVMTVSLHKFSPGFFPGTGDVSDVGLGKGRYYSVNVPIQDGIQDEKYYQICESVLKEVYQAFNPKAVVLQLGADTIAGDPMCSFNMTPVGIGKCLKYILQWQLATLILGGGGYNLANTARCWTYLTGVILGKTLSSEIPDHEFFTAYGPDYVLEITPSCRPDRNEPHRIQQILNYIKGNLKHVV

[4] = biological target: T4, HDAC3/NCoR2 (Homo sapiens, UniProt O15379); test: HDAC inhibition assay (fluorogenic, Ac-Leu-Gly-Lys(Ac)-AMC); conditions: HDAC3, replicates
T4 construct: HDAC3/NCoR2 (full length, C-terminal His tag, NCoR2 N-terminal GST tag); purchased BPS Bioscience 50003

[5] = biological target: T5, HDAC6 (Homo sapiens, UniProt Q9UBN7); test: as above; conditions: HDAC6, replicates
T5 construct: HDAC6 (full length, BPS Bioscience, cat. #: 50056); purchased BPS Bioscience 50056
T5 sequence (Q9UBN7 1-1215): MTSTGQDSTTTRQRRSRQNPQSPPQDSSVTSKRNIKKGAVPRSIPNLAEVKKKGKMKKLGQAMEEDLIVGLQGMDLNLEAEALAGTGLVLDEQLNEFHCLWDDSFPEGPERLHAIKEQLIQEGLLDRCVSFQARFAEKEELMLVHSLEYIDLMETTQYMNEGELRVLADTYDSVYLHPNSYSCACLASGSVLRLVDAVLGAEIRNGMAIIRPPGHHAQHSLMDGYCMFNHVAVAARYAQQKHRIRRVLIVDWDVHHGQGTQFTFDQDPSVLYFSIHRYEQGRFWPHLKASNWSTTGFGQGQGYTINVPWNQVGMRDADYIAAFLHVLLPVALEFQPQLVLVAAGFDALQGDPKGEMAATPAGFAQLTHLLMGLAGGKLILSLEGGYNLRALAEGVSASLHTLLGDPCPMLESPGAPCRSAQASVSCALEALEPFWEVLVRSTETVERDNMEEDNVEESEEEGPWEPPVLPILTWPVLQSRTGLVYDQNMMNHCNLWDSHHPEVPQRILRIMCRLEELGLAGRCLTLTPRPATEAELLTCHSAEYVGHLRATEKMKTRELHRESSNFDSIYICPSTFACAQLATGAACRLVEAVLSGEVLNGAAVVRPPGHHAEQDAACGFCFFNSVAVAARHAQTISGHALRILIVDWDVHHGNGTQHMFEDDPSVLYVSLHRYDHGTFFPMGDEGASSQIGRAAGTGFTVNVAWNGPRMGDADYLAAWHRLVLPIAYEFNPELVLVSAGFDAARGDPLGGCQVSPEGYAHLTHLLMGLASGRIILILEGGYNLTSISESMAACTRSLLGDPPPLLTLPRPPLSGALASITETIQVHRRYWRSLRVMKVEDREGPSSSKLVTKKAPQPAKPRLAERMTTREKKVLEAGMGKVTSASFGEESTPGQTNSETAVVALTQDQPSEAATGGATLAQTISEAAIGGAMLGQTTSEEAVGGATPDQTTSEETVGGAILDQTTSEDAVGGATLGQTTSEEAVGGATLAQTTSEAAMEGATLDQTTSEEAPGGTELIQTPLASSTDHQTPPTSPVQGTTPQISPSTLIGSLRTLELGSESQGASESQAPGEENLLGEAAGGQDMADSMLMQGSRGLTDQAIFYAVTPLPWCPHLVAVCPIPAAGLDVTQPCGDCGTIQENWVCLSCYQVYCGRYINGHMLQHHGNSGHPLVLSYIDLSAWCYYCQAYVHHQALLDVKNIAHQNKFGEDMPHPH

[6] = log[inhibitor(M)] -10,5850266520292*

T4 sequence (O15379 whole entry): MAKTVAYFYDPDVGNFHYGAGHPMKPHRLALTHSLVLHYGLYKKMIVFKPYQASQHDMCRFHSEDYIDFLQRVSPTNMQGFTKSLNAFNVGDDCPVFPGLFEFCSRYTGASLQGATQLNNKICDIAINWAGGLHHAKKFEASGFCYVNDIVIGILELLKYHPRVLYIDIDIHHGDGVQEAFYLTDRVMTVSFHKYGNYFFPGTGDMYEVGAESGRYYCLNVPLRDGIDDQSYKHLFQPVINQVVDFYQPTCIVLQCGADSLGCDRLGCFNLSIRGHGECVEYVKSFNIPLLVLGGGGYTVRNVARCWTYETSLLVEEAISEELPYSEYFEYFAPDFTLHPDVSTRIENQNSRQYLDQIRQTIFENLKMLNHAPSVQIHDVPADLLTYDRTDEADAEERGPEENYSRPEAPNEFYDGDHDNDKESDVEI
T4 sequence (Q9Y618 389-480 partner limits assumed): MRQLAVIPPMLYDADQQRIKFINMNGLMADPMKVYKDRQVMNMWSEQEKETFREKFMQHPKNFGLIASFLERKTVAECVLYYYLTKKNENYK
T1 sequence (Q92769 whole entry): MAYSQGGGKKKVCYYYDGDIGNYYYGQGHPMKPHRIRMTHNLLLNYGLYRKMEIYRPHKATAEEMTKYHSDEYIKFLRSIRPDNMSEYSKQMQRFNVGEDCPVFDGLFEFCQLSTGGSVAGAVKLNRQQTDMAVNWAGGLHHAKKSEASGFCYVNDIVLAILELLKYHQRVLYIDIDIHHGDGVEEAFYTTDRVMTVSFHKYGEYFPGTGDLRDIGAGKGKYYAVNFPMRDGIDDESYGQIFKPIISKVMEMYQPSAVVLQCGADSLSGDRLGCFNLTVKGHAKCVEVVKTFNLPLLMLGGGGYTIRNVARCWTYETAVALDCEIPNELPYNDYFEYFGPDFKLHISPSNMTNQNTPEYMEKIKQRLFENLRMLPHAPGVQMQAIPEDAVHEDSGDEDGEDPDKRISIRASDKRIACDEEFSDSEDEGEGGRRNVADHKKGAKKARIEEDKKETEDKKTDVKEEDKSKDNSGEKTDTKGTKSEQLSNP
T2 sequence (Q13547 whole entry): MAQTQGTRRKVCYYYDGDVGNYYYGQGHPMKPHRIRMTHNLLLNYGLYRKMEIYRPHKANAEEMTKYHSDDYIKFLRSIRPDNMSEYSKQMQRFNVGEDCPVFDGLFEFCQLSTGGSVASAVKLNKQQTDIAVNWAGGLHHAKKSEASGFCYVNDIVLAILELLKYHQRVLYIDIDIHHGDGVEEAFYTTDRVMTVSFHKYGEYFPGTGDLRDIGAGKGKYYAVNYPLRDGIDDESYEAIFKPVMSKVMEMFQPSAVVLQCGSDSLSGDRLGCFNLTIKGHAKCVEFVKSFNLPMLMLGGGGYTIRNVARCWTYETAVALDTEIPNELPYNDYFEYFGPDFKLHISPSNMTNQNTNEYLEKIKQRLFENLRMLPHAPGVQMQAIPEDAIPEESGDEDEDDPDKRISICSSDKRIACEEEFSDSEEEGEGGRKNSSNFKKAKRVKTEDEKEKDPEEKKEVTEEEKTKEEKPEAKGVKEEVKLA

SMILES: CC(=O)N[C@@H](CCCCN)C(=O)NCC(=O)NCC(=O)N[C@@H](CCCCN)C(=O)NCC(=O)N[C@@H](CC(C)C)C(=O)NCC(=O)N[C@@H](CCCCCC(=O)NO)C(=O)NCC(=O)NCC(=O)N[C@@H](C)C(=O)N[C@@H](CCCCN)C(=O)N[C@@H](CCCNC(=N)N)C(=O)N[C@@H](Cc1c[nH]cn1)C(=O)N[C@@H](CCCNC(=N)N)C(=O)N[C@@H](Cc1c[nH]c2ccccc12)C(N)=O [1a] (Ac-KGGKGLG[Asu](NHOH)GGAKRHRW-NH2)
- residual enzymatic activity relative to control wells ([1]; log[inhibitor(M)] -5): 2.133 and 2.791
- residual enzymatic activity relative to control wells ([1]; log[inhibitor(M)] -5.69897): 7.69 and 10.6271
- residual enzymatic activity relative to control wells ([1]; log[inhibitor(M)] -7.79588): 81.9038 and 87.9722
- residual enzymatic activity relative to control wells [1, 6]: 96,4513363* and 102,627848*
- residual enzymatic activity relative to control wells ([2]; log[inhibitor(M)] -4.30103): 0.3873 and 0.804
- residual enzymatic activity relative to control wells ([2]; log[inhibitor(M)] -5): 1.615 and 1.98
- residual enzymatic activity relative to control wells ([2]; log[inhibitor(M)] -5.69897): 4.97 and 7.056
- residual enzymatic activity relative to control wells ([2]; log[inhibitor(M)] -6.39794): 17.3755 and 23.9522
- residual enzymatic activity relative to control wells ([2]; log[inhibitor(M)] -7.09691): 42.4661 and 51.6182
- residual enzymatic activity relative to control wells ([2]; log[inhibitor(M)] -7.79588): 69.6554 and 78.2753
- residual enzymatic activity relative to control wells ([2]; log[inhibitor(M)] -8.49485): 90.2096 and 95.3244
- residual enzymatic activity relative to control wells ([2]; log[inhibitor(M)] -9.19382): 98.0899 and 101.545
- residual enzymatic activity relative to control wells ([2]; log[inhibitor(M)] -9.89279): 100.633 and 103.923
- residual enzymatic activity relative to control wells [2, 6]: 100,638665* and 104,135042*
- residual enzymatic activity relative to control wells ([3]; log[inhibitor(M)] -4.30103): 0.7299 and 0.6853
- residual enzymatic activity relative to control wells ([3]; log[inhibitor(M)] -5): 2.535 and 2.3091
- residual enzymatic activity relative to control wells ([3]; log[inhibitor(M)] -5.69897): 8.883 and 8.651
- residual enzymatic activity relative to control wells ([3]; log[inhibitor(M)] -6.39794): 23.8025 and 24.0279
- residual enzymatic activity relative to control wells ([3]; log[inhibitor(M)] -7.09691): 53.2804 and 53.6221
- residual enzymatic activity relative to control wells ([3]; log[inhibitor(M)] -7.79588): 81.5639 and 82.7228
- residual enzymatic activity relative to control wells ([3]; log[inhibitor(M)] -8.49485): 92.8692 and 94.6574
- residual enzymatic activity relative to control wells ([3]; log[inhibitor(M)] -9.19382): 96.2557 and 98.5897
- residual enzymatic activity relative to control wells ([3]; log[inhibitor(M)] -9.89279): 97.4874 and 100.887
- residual enzymatic activity relative to control wells [3, 6]: 99,4860668* and 101,450216*
- residual enzymatic activity relative to control wells ([4]; log[inhibitor(M)] -4.30103): 0,27707809* and 0,48240325*
- residual enzymatic activity relative to control wells ([4]; log[inhibitor(M)] -5): 1.078 and 1.224
- residual enzymatic activity relative to control wells ([4]; log[inhibitor(M)] -5.69897): 2.835 and 3.644
- residual enzymatic activity relative to control wells ([4]; log[inhibitor(M)] -6.39794): 8.976 and 10.8935
- residual enzymatic activity relative to control wells ([4]; log[inhibitor(M)] -7.09691): 20.3107 and 23.0019
- residual enzymatic activity relative to control wells ([4]; log[inhibitor(M)] -7.79588): 35.6703 and 40.8157
- residual enzymatic activity relative to control wells ([4]; log[inhibitor(M)] -8.49485): 61.9563 and 69.3477
- residual enzymatic activity relative to control wells ([4]; log[inhibitor(M)] -9.19382): 85.7851 and 89.42
- residual enzymatic activity relative to control wells ([4]; log[inhibitor(M)] -9.89279): 97.8645 and 95.529
- residual enzymatic activity relative to control wells ([4]; log[inhibitor(M)] -10.585): 99.8741 and 99.2523
- residual enzymatic activity relative to control wells ([5]; log[inhibitor(M)] -4.30103): 2.005 and 0.9042
- residual enzymatic activity relative to control wells ([5]; log[inhibitor(M)] -5): 3.396 and 1.499
- residual enzymatic activity relative to control wells ([5]; log[inhibitor(M)] -5.69897): 3.721 and 2.924
- residual enzymatic activity relative to control wells ([5]; log[inhibitor(M)] -6.39794): 6.701 and 7.197
- residual enzymatic activity relative to control wells ([5]; log[inhibitor(M)] -7.09691): 17.8452 and 18.76
- residual enzymatic activity relative to control wells ([5]; log[inhibitor(M)] -7.79588): 40.4588 and 44.1884
- residual enzymatic activity relative to control wells ([5]; log[inhibitor(M)] -8.49485): 67.624 and 70.0247
- residual enzymatic activity relative to control wells ([5]; log[inhibitor(M)] -9.19382): 82.7418 and 78.8697
- residual enzymatic activity relative to control wells ([5]; log[inhibitor(M)] -9.89279): 94.6266 and 87.8667
- residual enzymatic activity relative to control wells ([5]; log[inhibitor(M)] -10.585): 92.0979 and 95.7297
